Test results taken from ChEMBL document CHEMBL5226326, “Discovery of 1-Benzoyl 4-Phenoxypiperidines as Small-Molecule Inhibitors of the β-Catenin/B-Cell Lymphoma 9 Protein-Protein Interaction” (J Med Chem, 2021).

How the values were obtained:
[1] = target: T1, beta-catenin-B-cell lymphoma 9 protein complex (Homo sapiens, UniProt P35222); assay: Inhibition of full length beta-catenin (1 to 781 residues) (unknown origin) expressed in Escherichia coli BL21 (DE3)/N-terminal biotinylated human BCL9 HD2 (350 to 375 residues) protein-protein interaction assessed as inhibition constant incubated for 1 hr by Alphascreen assay
T1 sequence (P35222 whole entry): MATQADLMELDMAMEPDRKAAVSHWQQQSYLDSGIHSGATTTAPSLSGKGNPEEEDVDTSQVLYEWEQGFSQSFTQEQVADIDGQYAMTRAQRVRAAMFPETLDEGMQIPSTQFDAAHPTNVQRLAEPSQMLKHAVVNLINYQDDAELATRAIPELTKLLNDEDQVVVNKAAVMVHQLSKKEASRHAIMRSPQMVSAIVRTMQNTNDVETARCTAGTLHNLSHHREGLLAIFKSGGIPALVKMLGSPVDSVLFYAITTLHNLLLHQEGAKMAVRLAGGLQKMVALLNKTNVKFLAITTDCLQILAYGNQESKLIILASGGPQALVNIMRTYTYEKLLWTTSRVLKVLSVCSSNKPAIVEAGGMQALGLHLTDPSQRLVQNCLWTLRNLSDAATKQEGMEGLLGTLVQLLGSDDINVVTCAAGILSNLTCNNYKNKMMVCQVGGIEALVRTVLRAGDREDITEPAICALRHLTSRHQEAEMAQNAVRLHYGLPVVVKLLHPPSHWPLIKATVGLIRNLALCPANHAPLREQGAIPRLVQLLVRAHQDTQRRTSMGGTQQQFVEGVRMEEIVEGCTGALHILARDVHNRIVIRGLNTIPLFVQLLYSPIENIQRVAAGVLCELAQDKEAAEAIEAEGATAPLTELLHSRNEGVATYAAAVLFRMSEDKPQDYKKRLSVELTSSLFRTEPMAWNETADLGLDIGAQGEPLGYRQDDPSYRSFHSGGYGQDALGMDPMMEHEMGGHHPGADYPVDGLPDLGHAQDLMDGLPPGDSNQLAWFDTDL
T1 sequence (O00512 whole entry): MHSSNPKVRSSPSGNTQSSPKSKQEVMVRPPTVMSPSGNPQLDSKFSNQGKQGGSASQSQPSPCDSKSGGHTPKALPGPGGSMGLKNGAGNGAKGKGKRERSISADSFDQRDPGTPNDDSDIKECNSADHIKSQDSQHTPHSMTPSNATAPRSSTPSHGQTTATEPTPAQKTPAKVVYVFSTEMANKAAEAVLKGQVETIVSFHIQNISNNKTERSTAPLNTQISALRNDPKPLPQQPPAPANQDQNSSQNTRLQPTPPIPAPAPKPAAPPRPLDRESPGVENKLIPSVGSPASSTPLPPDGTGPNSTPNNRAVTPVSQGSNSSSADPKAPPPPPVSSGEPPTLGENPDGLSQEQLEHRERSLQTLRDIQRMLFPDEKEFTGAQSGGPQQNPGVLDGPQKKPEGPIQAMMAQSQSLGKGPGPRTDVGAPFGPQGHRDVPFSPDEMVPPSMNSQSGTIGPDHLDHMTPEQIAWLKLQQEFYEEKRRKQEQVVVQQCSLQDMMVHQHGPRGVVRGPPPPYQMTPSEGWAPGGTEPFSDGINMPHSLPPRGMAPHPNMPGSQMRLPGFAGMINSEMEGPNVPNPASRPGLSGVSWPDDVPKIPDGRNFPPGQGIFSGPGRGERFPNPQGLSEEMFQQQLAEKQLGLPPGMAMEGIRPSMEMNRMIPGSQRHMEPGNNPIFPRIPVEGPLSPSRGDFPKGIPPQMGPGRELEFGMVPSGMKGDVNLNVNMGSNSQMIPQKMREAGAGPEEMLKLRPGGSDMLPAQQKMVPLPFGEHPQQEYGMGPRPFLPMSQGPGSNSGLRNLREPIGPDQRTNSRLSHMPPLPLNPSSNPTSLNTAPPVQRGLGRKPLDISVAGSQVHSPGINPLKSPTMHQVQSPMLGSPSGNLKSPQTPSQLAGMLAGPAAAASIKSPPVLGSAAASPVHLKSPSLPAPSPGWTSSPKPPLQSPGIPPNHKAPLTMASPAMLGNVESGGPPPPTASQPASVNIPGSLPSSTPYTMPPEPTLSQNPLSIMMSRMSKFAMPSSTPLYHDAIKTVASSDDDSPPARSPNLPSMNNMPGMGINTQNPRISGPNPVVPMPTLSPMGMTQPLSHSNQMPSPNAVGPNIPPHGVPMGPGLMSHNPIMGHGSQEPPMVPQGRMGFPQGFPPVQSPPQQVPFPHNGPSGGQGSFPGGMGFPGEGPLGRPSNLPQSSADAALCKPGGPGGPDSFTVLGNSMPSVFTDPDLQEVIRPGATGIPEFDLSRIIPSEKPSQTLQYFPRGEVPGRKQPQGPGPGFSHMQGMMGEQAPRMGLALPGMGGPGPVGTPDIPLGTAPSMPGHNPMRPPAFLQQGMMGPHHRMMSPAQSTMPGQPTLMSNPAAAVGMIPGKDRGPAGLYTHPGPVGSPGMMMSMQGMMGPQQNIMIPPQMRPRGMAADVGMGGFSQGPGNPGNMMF

[2] = Inhibition of Wnt/beta-catenin transactivation signalling in human HEK293 cells transfected with TOPFlash reporter gene incubated for 24 hrs by TOPFlash luciferase assay; assay type: cell-based; conditions: HEK293, 24 h

Compound: CC(C)(C)C1CCC(c2cc(C(=O)N3CCC(Oc4cc(N5CCNCC5)ccc4C#N)CC3)ccc2O[C@H]2CCNC2)CC1.Cl.Cl (mixture of isomers; cis)
- Ki [1]: 0.96 µM
- IC50 [2]: 5.7 µM
